Data: patent publication US20230017045A1, “PYRIDINE AND PYRIMIDINE CARBOXYLATE HERBICIDES AND METHODS OF USE THEREOF” (Dow AgroSciences LLC, priority 2017, published 2023)
Read-outs that look alike come from different tables or passages of the source.

Tested on: test plant species
Test: Post-emergent herbicidal activity test (greenhouse, foliar spray, visual growth reduction)
Type: in vivo
Conditions: post-emergence, 336 h, 140 g ai/ha
Method in brief: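 Greenhouse plants at first–second true leaf stage sprayed overhead at 187 L/ha with compound in acetone/water/isopropanol/DMSO/crop oil/X-77 carrier; controls received solvent blank. Injury rated visually after 14 d on a 0–100% scale versus untreated and control plants, converted to growth reduction.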

[1] = ECHCG: barnyardgrass (Echinochloa crus-galli), 14 days after application, read-out: Visual Growth Reduction (%) 14 Days After Application, ECHCG
[2] = IPOHE: ivy-leaf morning glory (Ipomoea hederacea), 14 days after application, read-out: Visual Growth Reduction (%) 14 Days After Application, IPOHE
[3] = KCHSC: kochia (Bassia scoparia), 14 days after application, read-out: Visual Growth Reduction (%) 14 Days After Application, KCHSC
[4] = ORYSA: rice (Oryza sativa), 14 days after application, read-out: Visual Growth Reduction (%) 14 Days After Application, ORYSA
[5] = SETFA: giant foxtail (Setaria faberi), 14 days after application, read-out: Visual Growth Reduction (%) 14 Days After Application, SETFA
[6] = SORVU: grain sorghum (Sorghum vulgare), 14 days after application, read-out: Visual Growth Reduction (%) 14 Days After Application, SORVU
[7] = STEME: common chickweed (Stellaria media), 14 days after application, read-out: Visual Growth Reduction (%) 14 Days After Application, STEME
[8] = TRZAS: wheat, spring (Triticum aestivum), 14 days after application, read-out: Visual Growth Reduction (%) 14 Days After Application, TRZAS
[9] = blackgrass (Alopecurus myosuroides), 14 Days After Application, read-out: Visual Growth Reduction (%) ALOMY
[10] = canada thistle (Cirsium arvense), 14 Days After Application, read-out: Visual Growth Reduction (%) CIRAR
[11] = crabgrass (Digitaria sanguinalis), 14 Days After Application, read-out: Visual Growth Reduction (%) DIGSA
[12] = lambsquarters (Chenopodium album), 14 Days After Application, read-out: Visual Growth Reduction (%) CHEAL
[13] = redroot pigweed (Amaranthus retroflexus), 14 Days After Application, read-out: Visual Growth Reduction (%) AMARE
[14] = wild oat (Avena fatua), 14 Days After Application, read-out: Visual Growth Reduction (%) AVEFA
[15] = yellow nutsedge (Cyperus esculentus), 14 Days After Application, read-out: Visual Growth Reduction (%) CYPES

Row | SMILES | pest or weed control at 140 g/ha [1] [%] | pest or weed control at 140 g/ha [2] [%] | pest or weed control at 140 g/ha [3] [%] | pest or weed control at 140 g/ha [4] [%] | pest or weed control at 140 g/ha [5] [%] | pest or weed control at 140 g/ha [6] [%] | pest or weed control at 140 g/ha [7] [%] | pest or weed control at 140 g/ha [8] [%] | pest or weed control at 140 g/ha [9] [%] | pest or weed control at 140 g/ha [10] [%] | pest or weed control at 140 g/ha [11] [%] | pest or weed control at 140 g/ha [12] [%] | pest or weed control at 140 g/ha [13] [%] | pest or weed control at 140 g/ha [14] [%] | pest or weed control at 140 g/ha [15] [%]
1 | COC(=O)c1nc(-c2ccc3ncoc3c2)ccc1Cl [F262, Methyl 6-(benzo[d]oxazol-6-yl)-3-chloropicolinate] | 0 to 29 | 30 to 44 | 0 to 29 | 0 to 29 | 0 to 29 | 0 to 29 | 0 to 29 | 0 to 29 | 0 to 29 | 0 to 29 | 0 to 29 | 30 to 44 | 0 to 29 | 0 to 29 | 0 to 29
2 | COC(=O)c1nc(-c2ccc([S+](C)[O-])cc2)c(F)cc1Cl (stereo not drawn) [F263, Methyl 3-chloro-5-fluoro-6-(4-(methylsulfinyl)phenyl)picolinate] | 0 to 29 | 0 to 29 | 0 to 29 | 0 to 29 | 0 to 29 | 0 to 29 | 0 to 29 | 0 to 29 | 0 to 29 | 0 to 29 | 0 to 29 | 0 to 29 | 0 to 29 | 0 to 29 | 0 to 29
3 | COC(=O)c1nc(-c2cccc(F)c2OC)c(F)cc1Cl [F264, Methyl 3-chloro-5-fluoro-6-(3-fluoro-2-methoxyphenyl) picolinate] | 0 to 29 | 95 to 100 | 0 to 29 | 0 to 29 | 0 to 29 | 0 to 29 | 0 to 29 | 0 to 29 | 0 to 29 | 30 to 44 | 0 to 29 | 75 to 84 | 0 to 29 | 0 to 29 | 0 to 29
4 | COC(=O)c1nc(-c2cc3ncsc3cc2F)c(F)cc1Cl [F265, Methyl 3-chloro-5-fluoro-6-(6-fluorobenzo[d]thiazol-5-yl)picolinate] | 0 to 29 | 0 to 29 | 0 to 29 | 0 to 29 | 0 to 29 | 0 to 29 | 0 to 29 | 0 to 29 | 0 to 29 | 0 to 29 | 0 to 29 | 75 to 84 | 0 to 29 | 0 to 29 | 0 to 29
5 | COC(=O)c1nc(-c2ccc3ccsc3c2F)c(F)cc1Cl [F266, Methyl 3-chloro-5-fluoro-6-(7-fluorobenzo[b]thiophen-6-yl)picolinate] | 0 to 29 | 0 to 29 | 0 to 29 | 0 to 29 | 0 to 29 | 0 to 29 | 0 to 29 | 0 to 29 | 0 to 29 | 0 to 29 | 0 to 29 | 0 to 29 | 0 to 29 | 0 to 29 | 0 to 29
